“Also recorded” adds a separate entry of the source. Like-named read-outs stand apart in the source and are kept apart here.
Tests used:
[1] = Labeling stability in murine serum (SDS-PAGE); format: in vitro ADME; settings: 37 °C, 1 h
Protocol: The labeling stability was evaluated using SDS-PAGE analysis (200 V constant) on NuPAGE 4–12% bis-Tris gels (Invitrogen) with the aims to check the release of fluorine-18, transchelation of [^18F]AlF to serum proteins, and cleavage of labeled protein by peptidases. […] After incubation, the samples were treated with NuPAGE® LDS Sample Buffer according to the manufacturer’s instructions and finally 0.05 nmol of sample loaded on the gel. Na^18F-sodium fluoride was loaded in a separate lane as a low molecular weight internal reference.

[2] = Biodistribution and in vivo binding specificity in NMRI mice; settings: mouse, iv, total radioactivity, male NMRI mice, 45 pmol i.v., 1 h p.i.
From the text: (§1) All animal studies were planned and performed in accordance with the national legislation on the protection of laboratory animals and the Ethic Committee for Animal Research of the Uppsala University approved the study plans. Randomly divided groups of 4 mice per data point were used in all experiments. […] BALB/c nu/nu male mice with PC-3 xenografts (weight 20±1 g at the time of the experiment) were used for tumor targeting and imaging studies. The tumors were grafted by subcutaneous injection of PC-3 cells (10^7 cells/mouse) into the right hind legs 3 weeks before the experiment. The average tumor size was 0.42±0.05 g at the time of the experiment.
(§2) The mice were euthanized 1 h post-injection (p.i.) by intraperitoneal administration of Ketalar-Rompun solution (10 mg/mL Ketalar and 1 mg/mL Rompun; 20 µL of solution per gram of body weight). Blood samples were collected by cardiac puncture. The organs of interest were collected, weighed and their radioactivity was measured. The organ uptake values were expressed as a percentage of the injected dose per gram of tissue (%ID/g) except for the gastrointestinal tract (GI) and carcass, which were expressed as %ID per whole sample.

[3] = biological target: T1, murine GRPRs (Mus musculus, UniProt P21729); test: as above; settings: iv, total radioactivity, male NMRI mice, 45 pmol i.v., 1 h p.i.
T1 construct: from tissue; host or cells: organs of male NMRI mice, in vivo (pancreas, stomach, small intestine and others)
T1 sequence (P21729 whole entry): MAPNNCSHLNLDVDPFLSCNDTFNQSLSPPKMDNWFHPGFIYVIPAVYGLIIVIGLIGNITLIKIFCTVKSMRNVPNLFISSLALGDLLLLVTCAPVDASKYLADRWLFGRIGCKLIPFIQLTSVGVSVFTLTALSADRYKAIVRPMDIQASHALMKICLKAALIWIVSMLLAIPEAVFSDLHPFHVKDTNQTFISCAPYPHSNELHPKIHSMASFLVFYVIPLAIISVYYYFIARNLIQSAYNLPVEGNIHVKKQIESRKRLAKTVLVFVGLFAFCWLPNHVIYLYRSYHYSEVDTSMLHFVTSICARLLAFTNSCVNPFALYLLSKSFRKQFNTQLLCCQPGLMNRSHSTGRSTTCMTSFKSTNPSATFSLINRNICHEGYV
From the text: as §1, §2

[4] = Biodistribution and in vivo binding specificity in PC-3 tumor-bearing BALB/c nu/nu mice; settings: mouse, iv, total radioactivity, male BALB/c nu/nu mice with PC-3 xenografts, 45 pmol i.v.; for tissue uptake at 1 h / tissue uptake at 6 h / tissue uptake at 3 h: male, BALB/c nu/nu; for tissue uptake at 1 h / tissue uptake dose at 1 h: 1 h p.i.; for tissue uptake at 6 h / tissue uptake dose at 6 h: 6 h p.i.; for tissue uptake at 3 h / tissue uptake dose at 3 h: 3 h p.i.
From the text: as §1
(§3) The mice were sacrificed at 1, 3 and 6 h p.i. to determine the uptake in tumors and other receptor-positive organs. A group of animals was co-injected with an excess of non-labeled peptide (20 nmol) and sacrificed 1 h p.i. The blood and other organs of interest were collected and treated as described above.

[5] = system: PC-3 xenografts; test: as above
From the text: as §1, §3

[6] = carcass (whole sample), read-out: Carcass uptake
[7] = carcass (whole sample), blocked (co-injected 20 nmol non-labeled peptide), read-out: Carcass uptake
[8] = gastrointestinal tract (whole sample), read-out: GI tract uptake
[9] = gastrointestinal tract (whole sample), blocked (co-injected 20 nmol non-labeled peptide), read-out: GI tract uptake
[10] = blood, blocked (co-injected 20 nmol non-labeled peptide), read-out: Blood uptake
[11] = bone, blocked (co-injected 20 nmol non-labeled peptide), read-out: Bone uptake
[12] = kidney, blocked (co-injected 20 nmol non-labeled peptide), read-out: Kidney uptake
[13] = liver, blocked (co-injected 20 nmol non-labeled peptide), read-out: Liver uptake
[14] = lung, blocked (co-injected 20 nmol non-labeled peptide), read-out: Lung uptake
[15] = muscle, blocked (co-injected 20 nmol non-labeled peptide), read-out: Muscle uptake
[16] = pancreas, blocked (co-injected 20 nmol non-labeled peptide), read-out: Pancreas uptake
[17] = small intestine, blocked (co-injected 20 nmol non-labeled peptide), read-out: Small intestine uptake
[18] = spleen, blocked (co-injected 20 nmol non-labeled peptide), read-out: Spleen uptake
[19] = stomach, blocked (co-injected 20 nmol non-labeled peptide), read-out: Stomach uptake
[20] = blood, 45 pmol, read-out: Blood uptake
[21] = bone, 45 pmol, read-out: Bone uptake
[22] = kidney, 45 pmol, read-out: Kidney uptake
[23] = liver, 45 pmol, read-out: Liver uptake
[24] = lung, 45 pmol, read-out: Lung uptake
[25] = muscle, 45 pmol, read-out: Muscle uptake
[26] = pancreas, 45 pmol, read-out: Pancreas uptake
[27] = small intestine, 45 pmol, read-out: Small intestine uptake
[28] = spleen, 45 pmol, read-out: Spleen uptake
[29] = stomach, 45 pmol, read-out: Stomach uptake
[30] = tumor (PC-3 xenograft), 45 pmol, read-out: Tumor uptake
[31] = male BALB/c nu/nu mice with PC-3 xenografts, 45 pmol i.v., 3 h p.i.

CC(C)C[C@H](NC(=O)C[C@H](O)[C@H](CC(C)C)NC(=O)[C@H](Cc1c[nH]cn1)NC(=O)CNC(=O)[C@@H](NC(=O)[C@H](C)NC(=O)[C@H](Cc1c[nH]c2ccccc12)NC(=O)[C@H](CCC(N)=O)NC(=O)[C@@H](Cc1ccccc1)NC(=O)COCCOCCNC(=O)CN1CCN(CC(=O)O)CCN(CC(=O)O)CC1)C(C)C)C(N)=O [[^18F]AlF-NOTA-P2-RM26]
stability in murine serum [1]: stable; also recorded: single radioactivity peak | tissue uptake dose at 1 h [2, 6]: 5 ± 2 %ID | tissue uptake dose at 1 h [2, 7]: 5 ± 1 %ID | tissue uptake dose at 1 h [2, 8]: 11 ± 3 %ID | tissue uptake dose at 1 h [2, 9]: 5 ± 1 %ID | tissue uptake at 1 h ([3]; blood, read-out: Blood uptake): 0.3 ± 0.1 %ID/g | tissue uptake at 1 h [3, 10]: 0.3 ± 0.1 %ID/g | tissue uptake at 1 h ([3]; bone, read-out: Bone uptake): 0.3 ± 0.2 %ID/g | tissue uptake at 1 h [3, 11]: 0.2 ± 0.1 %ID/g | tissue uptake at 1 h ([3]; kidney, read-out: Kidney uptake): 2.8 ± 0.5 %ID/g | tissue uptake at 1 h [3, 12]: 3.4 ± 0.8 %ID/g | tissue uptake at 1 h ([3]; liver, read-out: Liver uptake): 1.2 ± 0.3 %ID/g | tissue uptake at 1 h [3, 13]: 1.4 ± 0.4 %ID/g | tissue uptake at 1 h ([3]; lung, read-out: Lung uptake): 0.3 ± 0.2 %ID/g | tissue uptake at 1 h [3, 14]: 0.3 ± 0.1 %ID/g | tissue uptake at 1 h ([3]; muscle, read-out: Muscle uptake): 0.09 ± 0.03 %ID/g | tissue uptake at 1 h [3, 15]: 0.08 ± 0.03 %ID/g | tissue uptake at 1 h ([3]; pancreas, read-out: Pancreas uptake): 14 ± 6 %ID/g | tissue uptake at 1 h [3, 16]: 0.4 ± 0.1 %ID/g | tissue uptake at 1 h ([3]; small intestine, read-out: Small intestine uptake): 4 ± 2 %ID/g | tissue uptake at 1 h [3, 17]: 1.7 ± 0.7 %ID/g | tissue uptake at 1 h ([3]; spleen, read-out: Spleen uptake): 0.6 ± 0.3 %ID/g | tissue uptake at 1 h [3, 18]: 0.16 ± 0.08 %ID/g | tissue uptake at 1 h ([3]; stomach, read-out: Stomach uptake): 2 ± 1 %ID/g | tissue uptake at 1 h [3, 19]: 0.3 ± 0.1 %ID/g | tissue uptake at 1 h [4, 20]: 0.48 ± 0.08 %ID/g | tissue uptake at 6 h [4, 20]: 0.023 ± 0.001 %ID/g | tissue uptake at 1 h [4, 10]: 0.4 ± 0.2 %ID/g | tissue uptake at 1 h [4, 21]: 0.3 ± 0.08 %ID/g | tissue uptake at 3 h [4, 21]: 0.17 ± 0.08 %ID/g | tissue uptake at 6 h [4, 21]: 0.22 ± 0.08 %ID/g | tissue uptake at 1 h [4, 11]: 0.2 ± 0.2 %ID/g | tissue uptake at 1 h [4, 22]: 3.6 ± 0.3 %ID/g | tissue uptake at 3 h [4, 22]: 1.74 ± 0.25 %ID/g | tissue uptake at 6 h [4, 22]: 0.27 ± 0.06 %ID/g | tissue uptake at 1 h [4, 12]: 3.9 ± 0.8 %ID/g | tissue uptake at 1 h [4, 23]: 1.9 ± 0.4 %ID/g | tissue uptake at 3 h [4, 23]: 0.45 ± 0.21 %ID/g | tissue uptake at 6 h [4, 23]: 0.1 ± 0.02 %ID/g | tissue uptake at 1 h [4, 13]: 1.6 ± 0.3 %ID/g | tissue uptake at 1 h [4, 24]: 0.36 ± 0.06 %ID/g | tissue uptake at 3 h [4, 24]: 0.2 ± 0.2 %ID/g | tissue uptake at 6 h [4, 24]: 0.11 ± 0.08 %ID/g | tissue uptake at 1 h [4, 14]: 0.4 ± 0.3 %ID/g | tissue uptake at 1 h [4, 25]: 0.1 ± 0.03 %ID/g | tissue uptake at 3 h [4, 25]: 0.03 ± 0.01 %ID/g | tissue uptake at 6 h [4, 25]: 0.02 ± 0.01 %ID/g | tissue uptake at 1 h [4, 15]: 0.09 ± 0.04 %ID/g | tissue uptake at 1 h [4, 26]: 13 ± 2 %ID/g | tissue uptake at 3 h [4, 26]: 2.7 ± 0.7 %ID/g | tissue uptake at 1 h [4, 16]: 0.3 ± 0.2 %ID/g | tissue uptake at 1 h [4, 27]: 4 ± 2 %ID/g | tissue uptake at 3 h [4, 27]: 0.88 ± 0.39 %ID/g | tissue uptake at 6 h [4, 27]: 0.13 ± 0.06 %ID/g | tissue uptake at 1 h [4, 17]: 2.6 ± 0.9 %ID/g | tissue uptake at 1 h [4, 28]: 1 ± 0.2 %ID/g | tissue uptake at 3 h [4, 28]: 0.1 ± 0.03 %ID/g | tissue uptake at 6 h [4, 28]: 0.15 ± 0.08 %ID/g | tissue uptake at 1 h [4, 18]: 0.7 ± 0.2 %ID/g | tissue uptake at 1 h [4, 29]: 2.4 ± 0.4 %ID/g | tissue uptake at 3 h [4, 29]: 1.37 ± 0.35 %ID/g | tissue uptake at 6 h [4, 29]: 0.33 ± 0.08 %ID/g | tissue uptake at 1 h [4, 19]: 0.4 ± 0.1 %ID/g | tissue uptake at 1 h [4, 30]: 6.3 ± 0.9 %ID/g | tissue uptake at 3 h [4, 30]: 5.5 ± 0.7 %ID/g | tissue uptake at 6 h [4, 30]: 2.3 ± 0.7 %ID/g | tissue uptake at 1 h ([4]; tumor (PC-3 xenograft), blocked (co-injected 20 nmol non-labeled peptide), read-out: Tumor uptake): 0.8 ± 0.2 %ID/g | tissue uptake dose at 1 h [4, 6]: 6 ± 1 %ID | tissue uptake dose at 3 h [4, 6]: 3.8 ± 0.3 %ID | tissue uptake dose at 6 h [4, 6]: 0.8 ± 0.2 %ID | tissue uptake dose at 1 h [4, 7]: 4 ± 1 %ID | tissue uptake dose at 1 h [4, 8]: 6.1 ± 0.8 %ID | tissue uptake dose at 3 h [4, 8]: 5.2 ± 0.4 %ID | tissue uptake dose at 6 h [4, 8]: 3 ± 0.1 %ID | tissue uptake dose at 1 h [4, 9]: 4.8 ± 0.3 %ID | decrease of tumor uptake by co-injection of non-labeled peptide ([5]; PC-3 xenografted mice, 1 h p.i., 20 nmol non-labeled peptide): more than 8 fold | Stomach uptake [5, 31]: 1.4±0.4 %ID/g | Tumor uptake [5, 31]: 5.53±0.75 %ID/g

Reference: paper PMC3849266, “In Vitro and In Vivo Evaluation of a ^18F-Labeled High Affinity NOTA Conjugated Bombesin Antagonist as a PET Ligand for GRPR-Targeted Tumor Imaging” (PLoS ONE, 2013)
